Results published in patent US8716480B2, “7-aryl-1,2,4-triazolo[4,3-a]pyridine derivatives and their use as positive allosteric modulators of mGluR2 receptors” (Janssen Pharmaceuticals, Inc., priority 2009, dated 2014).
Read-outs that look alike come from different tables or passages of the source. Marks after values point to notes of the source that are not given here.

How the values were obtained:
human mGluR2 receptor = target: T1, human mGluR2 receptor (Homo sapiens, UniProt Q14416); experiment: [35S]GTPγS binding assay (PAM); format: biochemical; conditions: in presence of glutamate at predetermined EC20, membranes from CHO cells transfected with human mGluR2; for EC50: read-out: GTPγS -hR2 PAM pEC50 (converted)
T1 construct: expressed in transfected cells; host or cells: CHO cells (membranes)
Description: [^35S]GTPγS binding assay
The [^35S]GTPγS binding assay is a functional membrane-based assay used to study G-protein coupled receptor (GPCR) function whereby incorporation of a non-hydrolysable form of GTP, [^35S]GTPγS (guanosine 5′-triphosphate, labelled with […] ^35S), is measured.
CHO-cells were cultured to pre-confluence and stimulated with 5 mM butyrate for 24 h, prior to washing in PBS, and then collected by scraping in homogenisation buffer (50 mM Tris-HCl buffer, pH 7.4, 4° C.). Cell lysates were homogenized briefly using an ultra-turrax homogenizer. The homogenate was centrifuged at 16,000 RPM (Sorvall RC-5C plus rotor SS-34) for 10 minutes and the supernatant discarded. The pellet was resuspended in 5 mM Tris-HCl, pH 7.4 and centrifuged again (18,000 RPM, 20 min, 4° C.). The final pellet was resuspended in 50 mM Tris-HCl, pH 7.4 and stored at −80° C. in appropriate aliquots before use. Protein concentration was determined by the Bradford method (Bio-Rad, USA) with bovine serum albumin as standard.
Measurement of mGluR2 positive allosteric modulatory activity of test compounds was performed as follows. Test compounds and glutamate were diluted in assay buffer containing 10 mM HEPES acid, 10 mM HEPES salt, pH 7.4, 100 mM NaCl, 3 mM MgCl2 and 10 μM GDP. Human mGlu2 receptor-containing membranes were thawed on ice and diluted in assay buffer supplemented with 14 μg/ml saponin. Membranes were pre-incubated with compound alone or together with a predefined (˜EC20) concentration of glutamate (PAM assay) for 30 min at 30° C. After addition of [^35S]GTPγS (f.c. 0.1 nM) microplates were shaken briefly and further incubated to allow [^35S]GTPγS incorporation on activation (30 minutes, 30° C.). Final assay mixtures contained 7 μg of membrane protein in 10 mM HEPES acid, 10 mM HEPES salt, pH 7.4, 100 mM NaCl, 3 mM MgCl2, 10 μM GDP and 10 μg/ml saponin. Total reaction volume was […] Reactions were terminated by rapid filtration through Unifilter-96 GF/B filter plates (Packard, Meriden, Conn.) using a 96-well Packard filtermate harvester. Filters were washed 6 times with ice-cold 10 mM NaH2PO4/10 mM Na2HPO4, pH 7.4. Filters were then air-dried, and 40 μl of liquid scintillation cocktail (Microscint-O) was added to each well. Membrane-bound radioactivity was counted in a Microplate Scintillation and Luminescence Counter from Packard.
obtained in the presence of EC20 of mGluR2 agonist glutamate to determine positive allosteric modulation (PAM)—were generated using the Lexis software interface (developed at J&J). Data were calculated as % of the control glutamate response, defined as the maximal response that is generated upon addition of glutamate alone. Sigmoid concentration-response curves plotting these percentages versus the log concentration of the test compound were analyzed using non-linear regression analysis. The concentration producing half-maximal effect is then calculated as EC50.
All compounds were tested in presence of mGluR2 agonist, glutamate at a predetermined EC20 concentration, to determine positive allosteric modulation (GTPγS-PAM). pEC50 values were calculated from a concentration-response experiment of at least 10 concentrations.

male NMRI mice = experiment: Phencyclidine (PCP)-induced hyperlocomotion in mice; format: in vivo; conditions: for ED50: Mus musculus; for ED50 PCP-Inh. (estimated): estimated ED50 (n = 3 per dose; 4-fold separation between doses)
Description: On the day of experiments, the mice were brought into the procedural room. They were housed individually and allowed to acclimate for at least a half hour prior to testing. Although the studies were conducted during the light cycle (from 8:00 to 16:00 h), the procedure room was only sparsely lit (3 to 30 LUX) to provide better contrast for the video tracking. Local lighting was used for the injection procedures. During each trial, an individual mouse was placed in an open field arena (grey PVC cylinder with a height of 40 cm and a diameter of 22.5 cm). Each arena was placed on an infrared LED (8×8 LEDs)-lit box (white PVC squared box; 40×40 cm^2; height 12.5 cm). Each mouse was placed in the center of the arena and allowed to explore freely for 30 min. After each trial, the arena was cleaned with a wet and subsequently with a dry cleaning cloth. An infrared sensitive tube camera and a white light source (in arena: 4-7 LUX) were mounted to the ceiling above the observation chamber to record and input activity to a computer. Animal behavior was recorded and analyzed using the Noldus Ethovision XT Video Tracking System (Version 3.1; Noldus, Wageningen, The Netherlands). The total distance traveled (cm) was calculated. Data were then exported to data management systems for further analysis and reporting.
Test compound or solvent was administered at a pre-defined time before measurement (standard: 30 min) to male NMRI mice that were challenged with phencyclidine (PCP; 5 mg/kg, s.c.) 30 min before measurement. Activity was measured for a period of 30 min.

Male mice (C57BL/6) = experiment: Reversal of memantine-induced brain activation ([14C]2DG uptake) in mice; format: in vivo; conditions: for L.A.D. (lowest active dose) for significant (p<0.05) reduction of 2DG uptake in the hippocampus compared to memantine response: mice, s.c., memantine 20 mg/kg s.c.
Description: Reversal of Memantine-Induced Brain Activation in Mice NMDA receptor hypofunction is hypothesized to be involved in schizophrenia.
Autoradiographic assessment of radiolabeled [^14C]-2-deoxyglucose ([^14C]2DG) uptake is commonly used to investigate brain activation. In humans, cerebral blood flow is increased in specific brain regions after administration of a subanaesthetic dose of ketamine.
Male mice (C57BL/6, weight 24-28 g, fasted overnight; n=10 animals per group) were treated with vehicle or test compound (s.c.) in randomized order (t=0 min). Memantine (20 mg/kg, s.c.) was injected 30 min later (t=30 min). At t=45 min, [^14C]2DG (0.16 μCi/g) was administered intraperitoneally (i.p.), followed by a 45 min uptake period. Animals were decapitated (t=90 min), plasma glucose levels measured, the brain removed, rapidly frozen and stored at −20° C. until sectioned. Brain sections were exposed together to a precalibrated [^14C]standard on film, which was developed after four days of exposure. Local tissue [^14C]concentration (nCi/mg tissue equivalent—TEQ-) in each region of interest was determined.
Data was analyzed statistically using a two-way ANOVA analysis followed by post-hoc tests (memantine response versus reversal by the compound). The results are shown in table 5 below, expressed as lowest active dose (L.A.D.) required to exert a statistically significant (p<0.05) reduction of 2DG uptake in the hippocampus compared to memantine response.

male Wiga Wistar rats = experiment: Conditioned avoidance response (CAR) test; format: in vivo; conditions: for ED50: Rattus norvegicus, po
Excerpt: The apparatus consisted of an inner box surrounded by an outer box. The inner box was composed of four walls of transparent, synthetic material (length×width×height: 30×30×30 cm), an open top, and a grid floor made of 15 pairs of iron bars (2 mm diameter; 6 mm inter-bar distance). Odd and even bars were connected with a source of alternative current (1.0 mA; Coulbourn Instruments Solid State Shocker/Distributor), which could be interrupted by a switch. The outer box was composed of the same material (length×width×height: 40×40×36 cm), also with an open top, with a distance of 5 cm between the inner and outer box on all sides. To decrease the amount of environmental stimuli, three walls of the outer box were made non-transparent. The front wall was left transparent to allow the necessary inspection of the animal during the test. The upper edge of the outer and inner box served as a target for the rats on which to jump with fore- and hind-paws, respectively.
From their arrival in the laboratory on the experimental day, male Wiga Wistar rats (230±30 g) were housed in individual cages provided with bedding material.
Latency to avoidance was recorded. The median avoidance response obtained over the three experimental sessions for each rat were used for further calculations.

[1] = sc, read-out: ED50 PCP-Inh. (estimated)
[2] = mice, PCP 5 mg/kg s.c., criterion total distance <5500 counts, not marked as oral, read-out: ED50 PCP-Inh.
[3] = compound administered orally, criterion median avoidance latency >8 s, read-out: ED50 CAR-Inh.
[4] = compound administered orally, criterion median avoidance latency >8 s

T1 sequence (Q14416 19-872): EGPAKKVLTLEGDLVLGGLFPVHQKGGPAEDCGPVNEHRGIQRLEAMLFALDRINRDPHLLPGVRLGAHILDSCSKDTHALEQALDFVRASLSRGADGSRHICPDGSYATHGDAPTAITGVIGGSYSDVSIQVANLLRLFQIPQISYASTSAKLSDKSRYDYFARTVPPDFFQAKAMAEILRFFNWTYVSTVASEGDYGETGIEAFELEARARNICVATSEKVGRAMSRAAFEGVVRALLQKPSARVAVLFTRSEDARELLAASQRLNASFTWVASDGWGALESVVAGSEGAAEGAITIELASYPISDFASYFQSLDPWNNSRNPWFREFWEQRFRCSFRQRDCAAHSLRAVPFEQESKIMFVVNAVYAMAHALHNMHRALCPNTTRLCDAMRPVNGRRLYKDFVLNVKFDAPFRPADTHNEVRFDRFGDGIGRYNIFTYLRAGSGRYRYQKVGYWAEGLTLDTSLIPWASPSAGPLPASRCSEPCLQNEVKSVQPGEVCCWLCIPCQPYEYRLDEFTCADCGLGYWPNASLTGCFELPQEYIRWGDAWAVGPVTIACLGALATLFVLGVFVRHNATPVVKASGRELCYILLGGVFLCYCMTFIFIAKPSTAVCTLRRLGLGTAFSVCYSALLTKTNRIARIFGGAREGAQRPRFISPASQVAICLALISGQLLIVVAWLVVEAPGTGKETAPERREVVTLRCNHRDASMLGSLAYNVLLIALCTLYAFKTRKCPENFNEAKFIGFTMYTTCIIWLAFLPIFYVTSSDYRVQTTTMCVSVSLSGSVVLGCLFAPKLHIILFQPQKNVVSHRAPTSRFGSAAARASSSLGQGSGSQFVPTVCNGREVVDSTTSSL

Row | Compound | EC50 (human mGluR2 receptor) [nM] | L.A.D. (lowest active dose) for significant (p<0.05) reduction of 2DG uptake in the hippocampus compared to memantine response (Male mice (C57BL/6)) | melting point [°C] | ED50 (male NMRI mice; [2]) [mg/kg] | GTPγS -hR2 PAM pEC50 (human mGluR2 receptor) | other results
1 | Fc1cc(-c2ccn3c(CC4CC4)nnc3c2C(F)(F)F)ccc1Oc1ccnc(C2CC2)c1 [Co. No. 46, 3-Cyclopropylmethyl-7-[4-(2-cyclopropyl-pyridin-4-yloxy)-3-fluoro-phenyl]-8-trifluoromethyl-[1,2,4]triazolo[4,3-a]pyridine] | 17.8 | ≦10 mg/kg | 211.1 | – | – | ED50 (male NMRI mice; [1]): 20 mg/kg
2 | CCOCc1nnc2c(C)c(-c3ccc(Oc4ccc(C)nc4C)c(F)c3)ccn12 [Co. No. 42, 8-Methyl-3-ethoxymethyl-7-{3-fluoro-4-[(2,6-dimethylpyridin-3-yl)oxy]phenyl}[1,2,4]triazolo[4,3-a]pyridine] | 170 | 5 mg/kg | 144 | – | – | ED50 (male NMRI mice; [1]): 20 mg/kg
3 | Cc1ccc(Oc2ccc(-c3ccn4c(CC5CC5)nnc4c3C(F)(F)F)cc2F)c(C)n1 [Co. No. 4] | 10.2 | ≦10 mg/kg | – | 15.2 | – | ED50 (male Wiga Wistar rats; compound administered orally, estimated ED50 (n = 3 per dose; 4-fold separation between doses), read-out: ED50 CAR-Inh. (estimated)): 20 mg/kg; ED50 (male Wiga Wistar rats; not marked as oral, estimated ED50 (n = 3 per dose; 4-fold separation between doses), read-out: ED50 CAR-Inh. (estimated)): 7.9 mg/kg
4 | Cc1ccc(Oc2ccc(-c3ccn4c(CC5CC5)nnc4c3Cl)cc2F)c(C)n1 [Co. No. 14, 8-Chloro-3-cyclopropylmethyl-7-{4-[(2,6-dimethylpyridin-3-yl)oxy]-3-fluorophenyl}[1,2,4]triazolo[4,3-a]pyridine] | 42.7 | – | 207.2 | 18 | – | ED50 (male Wiga Wistar rats; [3]): 24.6 mg/kg
5 | FC(F)(F)c1c(-c2ccc(N3CCNCC3)c(Cl)c2)ccn2c(CC3CC3)nnc12 [Co. No. 73] | – | – | – | – | 6.59 | ED50 PCP-Inh. (estimated) (male NMRI mice; mice, PCP 5 mg/kg s.c.): 12.6^a) mg/kg
6 | Cc1cc(Oc2ccc(-c3ccn4c(CC5CC5)nnc4c3Cl)cc2F)ccn1 [Co. No. 15] | – | ≦10 mg/kg | – | – | 6.65 | ED50 PCP-Inh. (male NMRI mice; mice, PCP 5 mg/kg s.c., criterion total distance <5500 counts, not marked as oral): 20 mg/kg; ED50 CAR-Inh. (male Wiga Wistar rats; [4]): ≧40*^ mg/kg
7 | CCc1cc(Oc2ccc(-c3ccn4c(CC5CC5)nnc4c3Cl)cc2F)ccn1 [Co. No. 48, 3-Cyclopropylmethyl-7-[4-(2-ethyl-pyridin-4-yloxy)-3-fluoro-phenyl]-8-chloro-[1,2,4]triazolo[4,3-a]pyridine] | 145 | ≦10 mg/kg | > 300 | – | – | ED50 (male NMRI mice; [1]): 12.6 mg/kg
8 | FC(F)(F)c1c(-c2ccc(Oc3ccnc(C4CC4)c3)c(Cl)c2)ccn2c(CC3CC3)nnc12 [Co. No. 54] | – | – | – | – | 8.38 | ED50 CAR-Inh. (male Wiga Wistar rats; [4]): >40* mg/kg
9 | Fc1cnccc1Oc1ccc(-c2ccn3c(CC4CC4)nnc3c2C(F)(F)F)cc1 [Co. No. 63] | – | – | – | – | 7.03 | ED50 PCP-Inh. (estimated) (male NMRI mice; mice, PCP 5 mg/kg s.c.): 1.58^a) mg/kg
10 | FC(F)(F)Cc1nnc2c(Cl)c(-c3ccc(OC4CCOCC4)c(Cl)c3)ccn12 [Co. No. 7, 7-(3-Chloro-4-pyranyl-4-oxy-phenyl)-8-chloro-3-(2,2,2-trifluoro-ethyl)-1,2,4-triazolo[4,3-a]pyridine] | 174 | – | 186.7 | 10 | – | –
11 | O=C(CCCN1CCC(O)(c2ccc(Cl)cc2)CC1)c1ccc(F)cc1 [haloperidol, reference compound] | – | – | – | – | – | effect on memantine-induced brain glucose metabolism / 2DG uptake (in words) (Male mice (C57BL/6); mouse brain): inactive
12 | Cc1ccc(Oc2ccc(-c3ccn4c(CC(F)(F)F)nnc4c3Cl)cc2F)c(C)n1 [Co. No. 3, 7-[3-Fluoro-4-(2′,6′-dimethyl-pyridin-3-yloxy)-phenyl]-8-chloro-3-(2,2,2-trifluoro-ethyl)-1,2,4-triazolo[4,3-a]pyridine] | 45.7 | – | 164.5 | 16.2 | – | ED50 (male Wiga Wistar rats; [3]): 24.6 mg/kg; ED50 (male Wiga Wistar rats; not marked as oral, criterion median avoidance latency >8 s, read-out: ED50 CAR-Inh.): 18.6 mg/kg
13 | COc1ccc(CNc2ccc(-c3ccn4c(CC5CC5)nnc4c3C(F)(F)F)cc2)cn1 [Co. No. 58] | – | – | – | – | 7.90 | ED50 CAR-Inh. (male Wiga Wistar rats; [4]): ≧40*^ mg/kg
